Laboratory results published in publication PMC6668147, “Ancient role of vasopressin/oxytocin-type neuropeptides as regulators of feeding revealed in an echinoderm” (BMC Biology, 2019).
Entries after “also recorded” stand apart in the source; their conditions may differ. Read-outs that look alike come from different tables or passages of the source.

Legend:
[1] = tested on: A. rubens VP/OT-type receptor; assay: Ca2+-induced luminescence in CHO-K1/G5A cells expressing the A. rubens VP/OT-type receptor and Gα16; type: cell-based, Asterias rubens; conditions: 10^−4 M; Wilcoxon signed-rank test vs basal media; n = 9
Source text: A pBluescript SKII (+) vector containing the A. rubens VP/OT-type receptor cDNA as an insert (see above) was used as a template to amplify by PCR the open reading frame of the VP/OT-type receptor. To accomplish this, the oligonucleotides 5′-ggatccCACCATGACGCCCTC-3′ (upstream) and 5′-cccgggCTACATGTGAGCGGAAGCA-3′ (downstream) were used as primers and the PCR product was subcloned into the eukaryotic expression vector pcDNA 3.1+, which had been cut with the restriction enzymes BamHI and […]. For the upstream primer, a partial Kozak translation initiation sequence (CACC) was introduced before the start codon to optimise the initiation of translation.
For this assay, Chinese hamster ovary (CHO-K1) cells stably expressing the Ca^2+-sensitive bioluminescent GFP-aequorin fusion protein—G5A (CHO-K1/G5A cells) are co-transfected with plasmids containing a G-protein coupled receptor cDNA insert and plasmids containing an insert encoding the promiscuous G-protein Gα16. If a candidate ligand activates the expressed receptor, the promiscuous Gα16 protein triggers the activation of the IP3 signalling pathway, causing an increase in intracellular Ca^2+ and luminescence. […] Asterotocin at concentrations ranging from 10^−4 to 10^−12 M (n = 3) was pipetted into the wells of clear-bottomed 96-well plates (Sigma-Aldrich), then a FLUOstar Omega Plate Reader (BMG LABTECH) was used to inject a fixed amount of transfected CHO-K1 cells into each well sequentially, and luminescence was measured for a 35-s period after injection. Luminescence measurements were normalised to the maximum response obtained in each experiment (100%) and the response obtained with the vehicle media (0%). […] The half maximal effective concentration (EC50) was calculated from the dose-response curve in Prism 6.0c. […] A Wilcoxon signed-rank test was performed to compare luminescence of cells exposed to asterotocin, vasopressin, oxytocin and NGFFYamide (at 10^−4 M) with luminescence of cells in basal media (control).

mammals [2] = conditions: cited from earlier work
Source text: Physiological processes and behaviour are controlled and regulated by a huge variety of neuronally secreted peptide signalling molecules (neuropeptides), which typically exert their effects on target cells by binding to cognate G-protein coupled receptors (GPCRs). Amongst the most intensely studied neuropeptides are vasopressin (VP) and oxytocin (OT). VP and OT are structurally related neuropeptides that were originally discovered based on their peripheral actions as pituitary hormones in mammals. VP is a cyclic and amidated nonapeptide (CYFQNCPRG-NH2; with a disulphide bridge betwee ...

mammals [3] = conditions: cited from earlier work; remark: listed apart in the source
Source text: Our discovery that asterotocin has such striking feeding-related effects in starfish provides a basis to examine if VP/OT-type neuropeptides are likewise involved in the regulation of feeding-associated processes in other taxa. Currently, little is known about the physiological roles of VP/OT-type neuropeptides in other echinoderms. […] This effect of echinotocin as a muscle contractant is consistent with the myoexcitatory eff ...

[4] = tested on: cardiac stomach preparations from A. rubens; assay: Relaxation of in vitro cardiac stomach preparations; design: species or system Asterias rubens; conditions: 10^−7 M, KCl pre-contraction
Procedure: To investigate if asterotocin affects muscle contractility in A. rubens, synthetic asterotocin (custom synthesised by PPR Ltd., Fareham, Hampshire, UK) was tested on three in vitro preparations: the cardiac stomach, apical muscle and tube feet. These three preparations have been used to examine the effects of other neuropeptides, and the methods employed have been described in detail previously. […] Therefore, the effects of asterotocin on cardiac stomach and apical muscle preparations were examined in more detail.
Cardiac stomach preparations from 16 starfish (8–13.5 cm in diameter) were incubated at 11 °C in an aerated organ bath containing artificial seawater with 3 × 10^−2 M added KCl. This induces sustained contraction of the cardiac stomach, which facilitates recording of the effects of neuropeptides that act as muscle relaxants. The contractile state of preparations was monitored using a high-grade isotonic transducer (model 60-3001; Harvard Apparatus, Cambridge, UK) connected to a Goerz SE 120 chart recorder (Recorderlab, Sutton, Surrey, UK) or using a high-grade isotonic transducer (MLT0015; ADInstruments Ltd., Oxford, UK) connected to data acquisition hardware (PowerLab 2/26, ADInstruments Ltd.) via a bridge amplifier (FE221 Bridge Amp, ADInstruments Ltd.). The output from the PowerLab was recorded using LabChart (v8.0.7) software installed on a laptop computer (Lenovo E540, Windows 7 Professional). To obtain representative images of the effects of asterotocin, traces were exported from LabChart into Adobe Photoshop and the function ‘Select and Mask’ was utilised to remove the background grid pattern.
The percentage relaxation at each concentration was calculated relative to the maximal relaxing effect produced by asterotocin in each preparation. […] For these experiments, the effect of 10^−7 M S2 was defined as 100%, and the effect of 10^−7 M asterotocin was calculated as a percentage of the effect of 10^−7 M S2. The relaxing effects of asterotocin and S2 on cardiac stomach preparations were analysed statistically using the Mann-Whitney U test.

A. rubens [5] = assay: In vivo cardiac stomach eversion, dose dependence; design: species or system Asterias rubens; conditions: 10 μl of 10^−3 M S2 into perivisceral coelom; n = 5
Procedure: During feeding in A. rubens, the cardiac stomach is everted out of the mouth over the digestible soft tissue of prey (e.g. mussels), and to accomplish this, the cardiac stomach must be relaxed. […] First, a pilot experiment was performed using 30 starfish (diameter 6.4–7.5 cm) that had been starved for 1 week to normalise their physiological status. Then animals were injected with different doses of asterotocin (10 μl of 10^−6–10^−3 M; n = 5 for each dose) or with 10 μl of water (negative control; n = 5) or with 10 μl of 10^−3 M S2 (positive control; n = 5). The animals were injected at a site located in the aboral body wall of an arm proximal to the junction with the central disc and adjacent to the madreporite. Care was taken to ensure that the tip of a Hamilton syringe used for injections was pushed through the body wall into the perivisceral coelom but not too deep so as to avoid injecting into the digestive organs. The doses of asterotocin injected were informed by our analysis of the volume of the perivisceral coelomic fluid in A. rubens. […] Following injection, the starfish were placed in a glass vessel containing seawater so that the mouth of the animal could be observed from below.

A. rubens [6] = assay: Body posture / arm flexion after injection; type: in vivo, Asterias rubens; conditions: S2, compared with asterotocin
A. rubens [7] = assay: Righting behaviour following 4-week starvation; type: in vivo, Asterias rubens
Procedure: To examine the specificity of the effects of asterotocin on starfish righting behaviour, an experiment was performed where the righting time of starfish (5.5–9.6 cm in diameter; starved for 4 weeks prior to testing) was measured before injection (n = 60; pooled from the three treatment groups) and after injection with 5 μl 10^−3 M asterotocin (n = 20) or 5 μl 10^−3 M S2 (n = 20) or 5 μl distilled water (n = 20). The time taken to right in seconds as well as the percentage difference between righting with and without injection was calculated. The percentage time difference between righting with and without injection in water-injected, asterotocin-injected and S2-injected animals was determined and plotted as a separated box and whiskers graph in Prism 6 (GraphPad 6). The effect of neuropeptides on righting behaviour was analysed statistically using the Mann-Whitney U test or a one-way ANOVA test with a post hoc Dunnett’s multiple comparisons test.

[8] = tested on: cardiac stomach preparations from A. rubens; conditions: in vitro; cited from earlier work
Procedure: Therefore, it was of interest here to investigate the effects of asterotocin on muscle preparations from A. rubens. […] The percentage relaxation at each concentration was calculated relative to the maximal relaxing effect produced by asterotocin in each preparation. To enable the assessment of the magnitude of the relaxing effect of asterotocin on cardiac stomach, experiments were performed to compare the effect asterotocin with the effect of the neuropeptide SALMFamide-2 (S2; […]-NH2), which has been shown previously to cause relax ...

A. rubens [9] = conditions: cited from earlier work
Source text: Starfish feed by firstly prying apart the bivalve shells of prey (e.g. mussels) with their tube feet and then […] cardiac stomach out of their mouth and over the exposed digestible soft tissues. In order for the cardiac stomach to be everted, it must be in a relaxed state, and therefore, neuropeptides that cause cardiac stomach relaxation in vitro are potential mediators of eversion in vivo.

insects = conditions: cited from earlier work
Source text: Thus, the evolutionary origin of at least 30 neuropeptide families (including VP/OT-type) can be traced back to the bilaterian common ancestor of deuterostomes (vertebrates and invertebrate chordates, hemichordates, echinoderms) and protostomes (e.g. arthropods, nematodes, molluscs, annelids). Definitive evidence of the antiquity of VP/OT-type neuropeptides was first obtained with the purification and sequencing of VP/OT-type neuropeptides from insect and molluscan species [[8], ...

octopus rectum = conditions: in vitro; cited from earlier work
Source text: What about in the protostome branch of the Bilateria? […] In the cephalopod mollusc Octopus vulgaris, the VP/OT-type signalling system has been characterised in detail and comprises two VP/OT-type neuropeptides, octopressin (OP) and cephalotocin (CT), and three cognate receptors (OPR, CTR1, CTR2). Furthermore, OP is expressed in the regions of the octopus nervous system involved in the control o ...

CYFQNCPRG-NH2 (disulfide) [vasopressin, human vasopressin; cyclic amidated nonapeptide (…-NH2)]
receptor activation at highest concentration tested, in words [1]: did not cause significant receptor activation; also recorded: not significantly higher than the basal media control
blood pressure, in words (mammals [2]): increases blood pressure
diuresis, in words (mammals [2]): acts as an antidiuretic

CYIQNCPLG-NH2 (disulfide) [oxytocin, human oxytocin (…-NH2)]
receptor activation at highest concentration tested, in words [1]: did not cause significant receptor activation; also recorded: not significantly higher than the basal media control
effect on feeding, in words (mammals [3]): inhibits feeding
uterine contraction and lactation, in words (mammals [2]): causes uterine contraction and lactation

NGFFYamide
receptor activation at highest concentration tested, in words [1]: did not cause significant receptor activation; also recorded: not significantly higher than the basal media control

SGPYSFNSGLTF-NH2 [S2, SALMFamide neuropeptide S2 (…-NH2)]
relaxing effect, S2 effect defined as 100% ([4]; replicate 1): 100%
relaxing effect, S2 effect defined as 100% ([4]; replicate 2): 100%
relaxing effect, S2 effect defined as 100% ([4]; replicate 3): 100%
relaxing effect, S2 effect defined as 100% ([4]; replicate 4): 100%
relaxing effect, S2 effect defined as 100% ([4]; replicate 5): 100%
cardiac stomach eversion, in words (A. rubens [5]): cardiac stomach eversion was not observed; also recorded: stomach eversion was not observed in any of the animals
posture change, in words (A. rubens [6]): does not induce the changes in posture
significance of righting time vs water-injected, in words (A. rubens [7]; 5 μl of 10^−3 M S2, n = 20): not significantly different
mean righting time (A. rubens [7]; 5 μl of 10^−3 M, mean ± SEM, n = 20, water 341 ± 59 s, non-injected 345 ± 35 s): 312 ± 40 s
mean percentage righting time difference with vs without injection (A. rubens [7]; 5 μl of 10^−3 M, n = 20, water − 1.8 ± 13%): 15 ± 12%
effect on cardiac stomach preparations, in words [8]: acts as a relaxant of cardiac stomach preparations; also recorded: cause relaxation of A. rubens cardiac stomach preparations in vitro
cardiac stomach eversion, in words (earlier work) (A. rubens [9]; 100 μl of 10^−3 M into perivisceral coelom): triggers cardiac stomach eversion
cardiac stomach eversion, in words (earlier work) (A. rubens [9]; injected in vivo): induces cardiac stomach eversion when injected in vivo

inotocin
role in urine production, in words (insects): VP-like role in regulating urine production

octopressin
effect on rectum, in words (octopus rectum): myoexcitatory effects on in vitro preparations of the octopus rectum
